Assay results: patent US11331314B2, “Amine substituted triazole derivatives and uses thereof” (Bayer Pharma Aktiengesellschaft, priority 2017, dated 2022)

What was measured:
[1] = target: T1, human V2 receptor (Homo sapiens, UniProt P30518); assay: Cellular in vitro assay for determining vasopressin receptor activity, V2 receptor cell line (CRE-luciferase); assay type: cell-based; conditions: CHO cell line transfected with the human V2 receptor; agonist [Arg8]-vasopressin at EC50 concentration; read-out: IC50 hV2
T1 construct: expressed in transfected cells; host or cells: CHO K1 (ATCC) expressing firefly luciferase under a CRE-responsive promoter
Experimental: (§1) B-1. Cellular In Vitro Assay for Determining Vasopressin Receptor Activity
(§2) The identification of agonists and antagonists of the V1a and V2 vasopressin receptors from humans, rats and dogs as well as the quantification of the activity of the compounds of the invention is carried out using recombinant cell lines. These cell lines originally derive from a hamster's ovary epithelial cell (Chinese Hamster Ovary, CHO K1, ATCC: American Type Culture Collection, Manassas, Va. 20108, USA). The test cell lines constitutively express the human, rat or dog V1a or V2 receptors. In case of the Gαq-coupled V1a receptors, cells are also stably transfected with a modified form of the calcium-sensitive photoproteins aequorin (human and rat V1a) or obelin (dog V1a), which, after reconstitution with the cofactor coelenterazine, emit light when there are increases in free calcium concentrations [Rizzuto R, Simpson A W, Brini M, Pozzan T, Nature 358, 325-327 (1992); Illarionov B A, Bondar V S, Illarionova V A, Vysotski E S, Gene 153 (2), 273-274 (1995)]. The resulting vasopressin receptor cells react to stimulation of the recombinantly expressed V1a receptors by intracellular release of calcium ions, which can be quantified by the resulting photoprotein luminescence. The Gs-coupled V2 receptors are stably transfected into cell lines expressing the gene for firefly luciferase under control of a CRE-responsible promoter. Activation of V2 receptors induces the activation of the CRE-responsive promoter via cAMP increase, thereby inducing the expression of firefly luciferase. The light emitted by photoproteins of V1a cell lines as well as the light emitted by firefly luciferase of V2 cell lines corresponds to the activation or inhibition of the respective vasopressin receptor. The bioluminescence of the cell lines is detected using a suitable luminometer [Milligan G, Marshall F, Rees S, Trends in Pharmacological Sciences 17, 235-237 (1996)].
Vasopressin V2 Receptor Cell Lines:
On the day before the assay, the cells are plated out in culture medium (DMEM/F12, 2% FCS, 2 mM glutamine, 10 mM HEPES) in 384-well microtiter plates and kept in a cell incubator (96% humidity, 5% v/v CO2, 37° C.). On the day of the assay, test compounds in various concentrations and the agonist [Arg^8]-vasopressin at EC50 concentration are added together to the wells, and plates are incubated for 3 hours in a cell incubator. Upon addition of the cell lysis reagent Triton™ and the substrate luciferin, luminescence of firefly luciferase is measured in a luminometer.
(§3) Table 1A below lists individual IC50 values for the compounds of the invention (including racemic mixtures as well as separated enantiomers) that were obtained from cell lines transfected with the human V1a or V2 receptor: […]

[2] = target: human V1a receptor (Homo sapiens, UniProt P37288); assay: Cellular in vitro assay for determining vasopressin receptor activity, V1a receptor cell line (photoprotein luminescence); assay type: cell-based; conditions: for IC50: CHO cell line transfected with the human V1a receptor, agonist [Arg8]-vasopressin at EC50 concentration, read-out: IC50 hV1a; for ratio IC50 hV2/hV1a: selectivity ratio of the cellular IC50 values
Experimental: as §1, §2
Vasopressin V1a Receptor Cell Lines:
On the day before the assay, the cells are plated out in culture medium (DMEM/F12, 2% FCS, 2 mM glutamine, 10 mM HEPES, 5 μg/ml coelenterazine) in 384-well microtiter plates and kept in a cell incubator (96% humidity, 5% v/v CO2, 37° C.). On the day of the assay, test compounds in various concentrations are placed for 10 minutes in the wells of the microtiter plate before the agonist [Arg^8]-vasopressin at EC50 concentration is added. The resulting light signal is measured immediately in a luminometer.
as §3

T1 sequence (P30518 whole entry): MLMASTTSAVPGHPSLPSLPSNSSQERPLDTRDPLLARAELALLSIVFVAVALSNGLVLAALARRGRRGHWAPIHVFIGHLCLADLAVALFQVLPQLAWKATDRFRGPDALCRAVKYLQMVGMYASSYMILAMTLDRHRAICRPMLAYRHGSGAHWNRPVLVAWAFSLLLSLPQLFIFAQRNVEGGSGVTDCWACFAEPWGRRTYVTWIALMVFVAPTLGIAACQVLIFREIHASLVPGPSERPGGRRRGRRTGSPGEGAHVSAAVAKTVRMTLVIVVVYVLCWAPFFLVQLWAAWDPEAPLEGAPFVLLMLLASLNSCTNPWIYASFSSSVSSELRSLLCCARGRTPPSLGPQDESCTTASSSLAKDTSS
Sequence of human V1a receptor (P37288 whole entry): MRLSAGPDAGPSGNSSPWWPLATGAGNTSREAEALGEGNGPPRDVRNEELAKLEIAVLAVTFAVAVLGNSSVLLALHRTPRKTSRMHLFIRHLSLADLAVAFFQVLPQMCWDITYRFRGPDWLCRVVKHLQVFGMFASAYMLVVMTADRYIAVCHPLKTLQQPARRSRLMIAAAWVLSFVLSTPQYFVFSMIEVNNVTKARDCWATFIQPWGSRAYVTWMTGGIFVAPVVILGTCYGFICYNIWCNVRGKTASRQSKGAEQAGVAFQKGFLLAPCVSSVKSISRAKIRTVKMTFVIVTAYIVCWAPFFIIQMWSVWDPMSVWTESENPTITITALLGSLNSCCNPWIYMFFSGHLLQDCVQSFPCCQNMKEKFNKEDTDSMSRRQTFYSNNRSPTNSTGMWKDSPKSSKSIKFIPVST

Row | IC50 [1] [nM] | IC50 [2] [nM] | ratio IC50 hV2/hV1a [2] | SMILES
1 | 6.9 | 0.37 | 18.9 | O=c1n(Cc2nc(N3CCNC(C(F)(F)F)C3)n(-c3ccccc3Cl)n2)nc(-c2ccc(Cl)cc2)n1C[C@H](O)C(F)(F)F (mixture of isomers) [Example 66]
2 | 4.35 | 1.05 | 4.2 | O=C1CC(Nc2nc(Cn3nc(-c4ccc(Cl)cc4)n(C[C@H](O)C(F)(F)F)c3=O)nn2-c2ccccc2Cl)CN1 (mixture of isomers) [Example 69, 5-(4-Chlorophenyl)-2-{[1-(2-chlorophenyl)-5-{[5-oxopyrrolidin-3-yl]amino}-1H-1,2,4-triazol-3-yl]methyl}-4-[(2S)-3,3,3-trifluoro-2-hydroxypropyl]-2,4-dihydro-3H-1,2,4-triazol-3-one]
3 | 39 | 1.5 | 26.0 | O=c1n(Cc2nc(N3CCOC(C(F)(F)F)C3)n(-c3ccccc3Cl)n2)nc(-c2ccc(Cl)cc2)n1C[C@H](O)C(F)(F)F (mixture of isomers) [Example 77, 5-(4-Chlorophenyl)-2-({1-(2-chlorophenyl)-5-[2-(trifluoromethyl)morpholin-4-yl]-1H-1,2,4-triazol-3-yl}methyl)-4-[(2S)-3,3,3-trifluoro-2-hydroxypropyl]-2,4-dihydro-3H-1,2,4-triazol-3-one]
4 | 350 | 10.2 | 34.5 | O=C1CCC(Nc2nc(Cn3nc(-c4ccc(Cl)cc4)n(C[C@H](O)C(F)(F)F)c3=O)nn2CCC(F)(F)F)CN1 (mixture of isomers) [Example 99, 5-{[3-({3-(4-Chlorophenyl)-5-oxo-4-[(2S)-3,3,3-trifluoro-2-hydroxypropyl]-4,5-dihydro-1H-1,2,4-triazol-1-yl}methyl)-1-(3,3,3-trifluoropropyl)-1H-1,2,4-triazol-5-yl]amino}piperidin-2-one]
5 | 245 | 30 | 8.2 | O=c1n(Cc2nc(N3CCOC(C(F)(F)F)C3)n(CCC(F)(F)F)n2)nc(-c2ccc(Cl)cc2)n1C[C@H](O)C(F)(F)F (mixture of isomers) [Example 103, 5-(4-Chlorophenyl)-4-[(2S)-3,3,3-trifluoro-2-hydroxypropyl]-2-({5-[2-(trifluoromethyl)morpholin-4-yl]-1-(3,3,3-trifluoropropyl)-1H-1,2,4-triazol-3-yl}methyl)-2,4-dihydro-3H-1,2,4-triazol-3-one]
6 | 310 | 26.5 | 11.7 | O=c1n(Cc2nc(N3CCNC(C(F)(F)F)C3)n(CCC(F)(F)F)n2)nc(-c2ccc(Cl)cc2)n1C[C@H](O)C(F)(F)F (mixture of isomers) [Example 106, 5-(4-Chlorophenyl)-4-[(2S)-3,3,3-trifluoro-2-hydroxypropyl]-2-({5-[3-(trifluoromethyl)piperazin-1-yl]-1-(3,3,3-trifluoropropyl)-1H-1,2,4-triazol-3-yl}methyl)-2,4-dihydro-3H-1,2,4-triazol-3-one]
7 | 1.12 | 0.22 | 5.2 | NC(CNc1nc(Cn2nc(-c3ccc(Cl)cc3)n(C[C@H](O)C(F)(F)F)c2=O)nn1-c1ccccc1Cl)C(F)(F)F (single isomer, unassigned) [Example 7]
8 | 1.69 | 0.31 | 5.5 | NC(CNc1nc(Cn2nc(-c3ccc(Cl)cc3)n(C[C@H](O)C(F)(F)F)c2=O)nn1-c1ccccc1Cl)C(F)(F)F (single isomer, unassigned) [Example 8]
9 | 5.85 | 0.96 | 6.1 | O=c1n(Cc2nc(N3CCC(O)(C(F)(F)F)C3)n(-c3ccccc3Cl)n2)nc(-c2ccc(Cl)cc2)n1C[C@H](O)C(F)(F)F (single isomer, unassigned) [Example 14]
10 | 11.4 | 3.4 | 3.4 | O=c1n(Cc2nc(N3CCC(O)(C(F)(F)F)C3)n(-c3ccccc3Cl)n2)nc(-c2ccc(Cl)cc2)n1C[C@H](O)C(F)(F)F (single isomer, unassigned) [Example 15]
11 | 1.9 | 0.5 | 3.8 | O=C1NCCC1Nc1nc(Cn2nc(-c3ccc(Cl)cc3)n(C[C@H](O)C(F)(F)F)c2=O)nn1-c1ccccc1Cl (single isomer, unassigned) [Example 17]
12 | 1.35 | 0.81 | 1.7 | O=C1NCCC1Nc1nc(Cn2nc(-c3ccc(Cl)cc3)n(C[C@H](O)C(F)(F)F)c2=O)nn1-c1ccccc1Cl (single isomer, unassigned) [Example 18]
13 | 2.7 | 0.38 | 7.2 | CC1(O)CCN(c2nc(Cn3nc(-c4ccc(Cl)cc4)n(C[C@H](O)C(F)(F)F)c3=O)nn2-c2ccccc2Cl)C1 (single isomer, unassigned) [Example 30]
14 | 8.35 | 1.08 | 7.7 | CC1(O)CCN(c2nc(Cn3nc(-c4ccc(Cl)cc4)n(C[C@H](O)C(F)(F)F)c3=O)nn2-c2ccccc2Cl)C1 (single isomer, unassigned) [Example 31]
15 | 22 | 1.16 | 19.0 | O=c1n(Cc2nc(N3CCNC(C(F)(F)F)C3)n(-c3ccccc3Cl)n2)nc(-c2ccc(Cl)cc2)n1C[C@H](O)C(F)(F)F (single isomer, unassigned) [Example 67]
16 | 13.5 | 0.45 | 30.3 | O=c1n(Cc2nc(N3CCNC(C(F)(F)F)C3)n(-c3ccccc3Cl)n2)nc(-c2ccc(Cl)cc2)n1C[C@H](O)C(F)(F)F (single isomer, unassigned) [Example 68]
17 | 365 | 30.5 | 12.0 | O=c1n(Cc2nc(N3CCOC(C(F)(F)F)C3)n(CCC(F)(F)F)n2)nc(-c2ccc(Cl)cc2)n1C[C@H](O)C(F)(F)F (single isomer, unassigned) [Example 104]
18 | 180 | 22 | 8.2 | O=c1n(Cc2nc(N3CCOC(C(F)(F)F)C3)n(CCC(F)(F)F)n2)nc(-c2ccc(Cl)cc2)n1C[C@H](O)C(F)(F)F (single isomer, unassigned) [Example 105]

Row | SMILES | IC50 [1] [nM] | IC50 [2] [nM] | ratio IC50 hV2/hV1a [2]
19 | O=C1CCC(CNc2nc(Cn3nc(-c4ccc(Cl)cc4)n(C[C@H](O)C(F)(F)F)c3=O)nn2-c2ccccc2Cl)N1 (mixture of isomers) [Example 63, 5-(4-Chlorophenyl)-2-{[1-(2-chlorophenyl)-5-({[5-oxopyrrolidin-2-yl]methyl}amino)-1H-1,2,4-triazol-3-yl]methyl}-4-[(2S)-3,3,3-trifluoro-2-hydroxypropyl]-2,4-dihydro-3H-1,2,4-triazol-3-one] | 5.8 | 0.42 | 14.0
20 | O=C1CCC(Nc2nc(Cn3nc(-c4ccc(Cl)cc4)n(C[C@H](O)C(F)(F)F)c3=O)nn2-c2ccccc2Cl)CN1 (single isomer, unassigned) [Example 61] | 10.1 | 1.35 | 7.4
21 | O=C1CCC(Nc2nc(Cn3nc(-c4ccc(Cl)cc4)n(C[C@H](O)C(F)(F)F)c3=O)nn2-c2ccccc2Cl)CN1 (single isomer, unassigned) [Example 62] | 9.45 | 1.3 | 7.3
22 | O=C1CCC(CNc2nc(Cn3nc(-c4ccc(Cl)cc4)n(C[C@H](O)C(F)(F)F)c3=O)nn2-c2ccccc2Cl)N1 (single isomer, unassigned) [Example 64] | 4.35 | 0.8 | 5.5
23 | O=C1CCC(CNc2nc(Cn3nc(-c4ccc(Cl)cc4)n(C[C@H](O)C(F)(F)F)c3=O)nn2-c2ccccc2Cl)N1 (single isomer, unassigned) [Example 65] | 6.45 | 0.63 | 10.2
